From PubChem BioAssay (NCI)
“And” between values parts separate entries of the source, which are not always exact repeats. Equal values may be shown once.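 All cell lines were grown in 96-well plates and treated with compound for 48 hours. GI50 is the concentration that inhibits growth by half. At the TGI there is no net growth.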

Experiments:
Assay in all cases: growth of human tumour cells (NCI), 48 h
[1] = test system: MDA-MB-435
[2] = test system: RPMI-8226 leukemia
[3] = test system: COLO 205 colon
[4] = test system: HCT-15 colon
[5] = test system: SK-MEL-28 melanoma
[6] = test system: HOP-62 NSCLC
[7] = test system: TK-10 renal
[8] = test system: SK-MEL-5 melanoma
[9] = test system: A549 NSCLC
[10] = test system: KM12 colon
[11] = test system: CCRF-CEM leukemia
[12] = test system: SW-620 colon
[13] = test system: HL-60(TB) leukemia
[14] = test system: SK-MEL-2 melanoma
[15] = test system: SNB-19 CNS
[16] = test system: HOP-92 NSCLC
[17] = test system: MCF7 breast
[18] = test system: NCI-H23 lung
[19] = test system: HCC-2998 colon
[20] = test system: NCI-H226 lung
[21] = test system: NCI/ADR-RES ovarian
[22] = test system: UACC-257 melanoma
[23] = test system: BT-549 breast
[24] = test system: U251 CNS
[25] = test system: OVCAR-5 ovarian
[26] = test system: M14 melanoma
[27] = test system: 786-0 renal

C#CC(F)(F)[C@]1(O)CC[C@H]2[C@@H]3CCC4=CC(=O)CCC4=C3[C@@H](c3ccc(C4CC4)cc3)C[C@@]21C
GI50 [1]: 4590 nM and 2250 nM | TGI [1]: 23900 nM and 10300 nM | GI50 [2]: 139 nM and 125 nM | TGI [2]: 1000 nM and 915 nM | GI50 [3]: 1790 nM and 1220 nM | TGI [3]: 11200 nM and 3590 nM | GI50 [4]: 1550 nM and 1810 nM | TGI [4]: > 100000 nM | GI50 [5]: 5330 nM and 2310 nM | TGI [5]: 17900 nM and 5960 nM | GI50 [6]: 367 nM and 201 nM | TGI [6]: 5440 nM and 1720 nM | GI50 [7]: 4550 nM and 2240 nM | TGI [7]: 20900 nM and 8330 nM | GI50 [8]: 4050 nM and 3050 nM | TGI [8]: 10700 nM and 8410 nM | GI50 [9]: 400 nM and 470 nM | TGI [9]: 3910 nM and 7220 nM | GI50 [10]: 21.4 nM and < 17.7 nM | GI50 [11]: 17 nM and < 10 nM | TGI [11]: 43 nM and < 13.9 nM | GI50 [12]: 1250 nM and 2360 nM | TGI [12]: 7440 nM and 12400 nM | GI50 [13]: < 10 nM | TGI [13]: 21.6 nM and < 10 nM | GI50 [14]: 2650 nM and 2220 nM | TGI [14]: 7740 nM and 6010 nM | GI50 [15]: 1440 nM and 3910 nM | GI50 [16]: 16.7 nM and < 16.1 nM | TGI [16]: 37.4 nM and < 25.3 nM | GI50 [17]: 1560 nM and 1160 nM | TGI [17]: > 100000 nM | GI50 [18]: 24.2 nM and < 15.1 nM | TGI [18]: 268 nM and < 41 nM | GI50 [19]: 5600 nM and 3720 nM | TGI [19]: 29900 nM and > 65600 nM | GI50 [20]: 7790 nM and 3150 nM | TGI [20]: 72900 nM and 11500 nM | GI50 [21]: 83 nM and 164 nM | TGI [21]: 2820 nM and 5550 nM | GI50 [22]: 7720 nM and 6450 nM | TGI [22]: 71800 nM and > 100000 nM | GI50 [23]: 1160 nM and 1280 nM | TGI [23]: 2940 nM and 3570 nM | GI50 [24]: 48 nM and 395 nM | TGI [24]: 234 nM and 2200 nM | GI50 [25]: 271 nM and 1280 nM | TGI [25]: 2270 nM and 5790 nM | GI50 [26]: 844 nM and 2780 nM | TGI [26]: 2920 nM and 18800 nM | GI50 [27]: < 10 nM
